Data reported in ChEMBL document CHEMBL1145511, “Comparative activities of daptomycin, linezolid, and tigecycline against catheter-related methicillin-resistant Staphylococcus bacteremic isolates embedded in biofilm” (2007).
Converted amounts (≈) assume the structure as drawn. The source made the active and inactive calls. The rule behind the calls is not given here.

Columns and labels:
[1] = test system: Staphylococcus aureus; assay: Antibacterial activity against methicillin-resistant Staphylococcus aureus after 24 hrs by silicone disk biofilm colonization method; type: functional, organism-based
[2] = test system: Staphylococcus aureus; assay: Antibacterial activity against methicillin-resistant Staphylococcus aureus at 4 hrs daily exposure for 2 days; type: functional, organism-based
[3] = test system: Staphylococcus aureus; assay: Antibacterial activity against methicillin-resistant Staphylococcus aureus at 4 hrs daily exposure for 3 days; type: functional, organism-based
[4] = test system: Staphylococcus aureus; assay: Antibacterial activity against methicillin-resistant Staphylococcus aureus at 4 hrs daily exposure for 5 day; type: functional, organism-based
[5] = test system: Staphylococcus aureus; assay: Antibacterial activity against methicillin-resistant Staphylococcus aureus 4342 at 4 hrs daily exposure for 5 days by broth microdilution method; type: functional
[6] = test system: Staphylococcus aureus; assay: Antibacterial activity against methicillin-resistant Staphylococcus aureus 4803 at 4 hrs daily exposure for 1 day by broth microdilution method; type: functional
[7] = test system: Staphylococcus aureus; assay: Antibacterial activity against methicillin-resistant Staphylococcus aureus 859 at 4 hrs daily exposure for 1 day by broth microdilution method; type: functional
[8] = test system: Staphylococcus aureus; assay: Antibacterial activity against methicillin-resistant Staphylococcus aureus 4913 at 4 hrs daily exposure for 5 days by broth microdilution method; type: functional
[9] = test system: Staphylococcus aureus; assay: Antibacterial activity against methicillin-resistant Staphylococcus aureus 789 at 4 hrs daily exposure for 5 days by broth microdilution method; type: functional, organism-based
[10] = test system: Staphylococcus aureus; assay: Antibacterial activity against methicillin-resistant Staphylococcus aureus 4930 at 4 hrs daily exposure for 5 days by broth microdilution method; type: functional
[11] = test system: Staphylococcus aureus; assay: Antibacterial activity against methicillin-resistant Staphylococcus aureus 4930 at 4 hrs daily exposure for 1 day by broth microdilution method; type: functional
[12] = test system: Staphylococcus aureus; assay: Antibacterial activity against methicillin-resistant Staphylococcus aureus 5098 at 4 hrs daily exposure for 1 day by broth microdilution method; type: functional
[13] = test system: Staphylococcus aureus; assay: Antibacterial activity against methicillin-resistant Staphylococcus aureus 789 at 4 hrs daily exposure for 1 day by broth microdilution method; type: functional
[14] = test system: Staphylococcus aureus; assay: Antibacterial activity against methicillin-resistant Staphylococcus aureus 4875 at 4 hrs daily exposure for 5 days by broth microdilution method; type: functional
[15] = test system: Staphylococcus aureus; assay: Antibacterial activity against methicillin-resistant Staphylococcus aureus 4913 at 4 hrs daily exposure for 1 day by broth microdilution method; type: functional
[16] = test system: Staphylococcus aureus; assay: Antibacterial activity against methicillin-resistant Staphylococcus aureus 4875 at 4 hrs daily exposure for 1 day by broth microdilution method; type: functional
[17] = test system: Staphylococcus aureus; assay: Antibacterial activity against methicillin-resistant Staphylococcus aureus 5004 at 4 hrs daily exposure for 5 days by broth microdilution method; type: functional
[18] = test system: Staphylococcus aureus; assay: Antibacterial activity against methicillin-resistant Staphylococcus aureus 293 at 4 hrs daily exposure for 1 day by broth microdilution method; type: functional
[19] = test system: Staphylococcus aureus; assay: Antibacterial activity against methicillin-resistant Staphylococcus aureus 4803 at 4 hrs daily exposure for 5 days by broth microdilution method; type: functional
[20] = test system: Staphylococcus aureus; assay: Antibacterial activity against methicillin-resistant Staphylococcus aureus 293 at 4 hrs daily exposure for 5 days by broth microdilution method; type: functional
[21] = test system: Staphylococcus aureus; assay: Antibacterial activity against methicillin-resistant Staphylococcus aureus 4342 at 4 hrs daily exposure for 1 day by broth microdilution method; type: functional
[22] = test system: Staphylococcus aureus; assay: Antibacterial activity against methicillin-resistant Staphylococcus aureus 5004 at 4 hrs daily exposure for 1 day by broth microdilution method; type: functional
[23] = test system: Staphylococcus aureus; assay: Antibacterial activity against methicillin-resistant Staphylococcus aureus 5098 at 4 hrs daily exposure for 5 days by broth microdilution method; type: functional
[24] = test system: Staphylococcus aureus; assay: Antibacterial activity against methicillin-resistant Staphylococcus aureus 859 at 4 hrs daily exposure for 5 days by broth microdilution method; type: functional

| Compound | Activity [1] | Activity [2] | Activity [4] | MIC [6] [mg/L] | MIC [7] [mg/L] | MIC [8] [mg/L] | Activity [9] | MIC [11] [mg/L] | MIC [12] [mg/L] | MIC [13] [mg/L] | MIC [15] [mg/L] | MIC [16] [mg/L] | MIC [18] [mg/L] | MIC [21] [mg/L] | MIC [22] [mg/L] | further results |
| --- | --- | --- | --- | --- | --- | --- | --- | --- | --- | --- | --- | --- | --- | --- | --- | --- |
| CCCCCCCCCC(=O)N[C@@H](Cc1c[nH]c2ccccc12)C(=O)N[C@H](CC(N)=O)C(=O)N[C@@H](CC(=O)O)C(=O)N[C@@H]1C(=O)NCC(=O)N[C@@H](CCCN)C(=O)N[C@@H](CC(=O)O)C(=O)N[C@H](C)C(=O)N[C@@H](CC(=O)O)C(=O)NCC(=O)N[C@H](CO)C(=O)N[C@@H]([C@H](C)CC(=O)O)C(=O)N[C@@H](CC(=O)c2ccccc2N)C(=O)O[C@@H]1C | Active | Active | – | – | – | – | – | – | – | – | – | – | – | – | – | – |
| CN(C)c1cc(NC(=O)CNC(C)(C)C)c(O)c2c1C[C@H]1C[C@H]3[C@H](N(C)C)C(O)=C(C(N)=O)C(=O)[C@@]3(O)C(O)=C1C2=O | Active | – | – | – | – | – | – | – | – | – | – | – | – | – | – | Activity [3]: Active |
| CN(C)c1ccc(O)c2c1C[C@H]1C[C@H]3[C@H](N(C)C)C(O)=C(C(N)=O)C(=O)[C@@]3(O)C(O)=C1C2=O | Active | Active | – | – | – | – | – | – | – | – | – | – | – | – | – | – |
| CN[C@H](CC(C)C)C(=O)N[C@H]1C(=O)N[C@@H](CC(N)=O)C(=O)N[C@H]2C(=O)N[C@H]3C(=O)N[C@H](C(=O)N[C@H](C(=O)O)c4cc(O)cc(O)c4-c4cc3ccc4O)[C@H](O)c3ccc(c(Cl)c3)Oc3cc2cc(c3O[C@@H]2O[C@H](CO)[C@@H](O)[C@H](O)[C@H]2O[C@H]2C[C@](C)(N)[C@H](O)[C@H](C)O2)Oc2ccc(cc2Cl)[C@H]1O | – | – | inactive | – | – | – | – | – | – | – | – | – | – | – | – | – |
| CC(=O)NC[C@H]1CN(c2ccc(N3CCOCC3)c(F)c2)C(=O)O1 [LINEZOLID] | – | – | inactive | 0.5 (≈ 1.48 µM) | 0.5 (≈ 1.48 µM) | 8 (≈ 23.7 µM) | Active | 0.5 (≈ 1.48 µM) | 0.25 (≈ 0.741 µM) | 0.5 (≈ 1.48 µM) | 0.5 (≈ 1.48 µM) | 0.5 (≈ 1.48 µM) | 1 (≈ 2.96 µM) | 1 (≈ 2.96 µM) | 0.5 (≈ 1.48 µM) | Activity [5]: Active; Activity [10]: Active; Activity [14]: Active; Activity [17]: Active; Activity [19]: Active; Activity [20]: Active |
| CO[C@H]1/C=C/O[C@@]2(C)Oc3c(C)c(O)c4c(O)c(c(/C=N/N5CCN(C)CC5)c(O)c4c3C2=O)NC(=O)/C(C)=C\C=C\[C@H](C)[C@H](O)[C@@H](C)[C@@H](O)[C@@H](C)[C@H](OC(C)=O)[C@@H]1C [RIFAMPIN] | – | – | inactive | < 0.06 | < 0.06 | 128 (≈ 156 µM) | Active | < 0.06 | < 0.06 | < 0.06 | 128 (≈ 156 µM) | < 0.06 | < 0.06 | < 0.06 | < 0.06 | MIC [5]: 128 mg/L (≈ 156 µM); MIC [10]: < 0.06 mg/L; MIC [14]: 128 mg/L (≈ 156 µM); MIC [23]: 128 mg/L (≈ 156 µM); MIC [17]: 128 mg/L (≈ 156 µM); MIC [19]: 128 mg/L (≈ 156 µM); MIC [24]: 32 mg/L (≈ 38.9 µM); MIC [20]: 128 mg/L (≈ 156 µM) |
